Article PMC6884555, “Simultaneous measurement of p53:Mdm2 and p53:Mdm4 protein-protein interactions in whole cells using fluorescence labelled foci” (Scientific Reports, 2019)
Entries after “also recorded” stand apart in the source; their conditions may differ. Read-outs that look alike come from different tables or passages of the source.

Tests used:
[1] = molecular target: T1, Mdm4:p53 (Homo sapiens, UniProt O15151); assay: Bimodal FLUOPPI Mdm4:p53 PPI assay (pre-mixed stably transfected CHO-K1 cells, high-content imaging); format: cell-based; conditions: bimodal system; both treatment time points
T1 construct: the p53 (1–70) and Mdm4 (1–112) PPI was then cloned and fused to the FP and ASH tags
T1 sequence (O15151 1-112): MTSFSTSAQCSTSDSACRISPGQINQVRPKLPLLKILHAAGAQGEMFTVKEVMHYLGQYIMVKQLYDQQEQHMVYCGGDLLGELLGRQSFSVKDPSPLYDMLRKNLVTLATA
Description: Separate CHO-K1 lines stably expressing either Ash-p53:AG-Mdm2 or Ash-p53:MR-Mdm4 Fluoppi PPI pairs were established and maintained independently. To enable bimodal measurement both cell lines were pre-mixed in equal proportions and then used to seed 96 well plates for compound analysis. […] Plates were incubated overnight and cells were treated with PPI modulating drugs. […] Cells were also processed using a nuclear morphology filter. […] A minimum number of 500 foci were used to determine this value. Dose curves for each compound were then derived and used to calculate a corresponding IC50 value.
Two stable cell lines, 1A7-1 and 1B7-11 were mixed equally and seeded into poly-D-lysine black-wall 96-well plates (Corning) at a density of 20,000 cells/well and incubated for 24 hours at 37 °C in a 5% CO2 atmosphere. […] Green (AG), red (MR) and blue (Hoechst33342) or far-red (Draq5) fluorescence images were used to monitor p53-MDM2, p53-MDM4 and nuclei, respectively. […] To remove dead cells from analysis, only cells with a “nuclei roundness” score of more than 0.75 were counted. FLUOPPI values were calculated by dividing the total green or red fluorescence intensity of puncta by the number of AG-positive nuclei or MR-positive nuclei, respectively. […]

[2] = molecular target: T2, Mdm4:p53 (Homo sapiens, UniProt O15151); assay: NanoBIT Mdm4:p53 PPI assay (transiently transfected CHO-K1 cells); format: cell-based; conditions: NanoBIT Mdm4:p53 (IC50, µM), small molecules, 10% (v/v) FCS
T2 sequence (O15151 1-490): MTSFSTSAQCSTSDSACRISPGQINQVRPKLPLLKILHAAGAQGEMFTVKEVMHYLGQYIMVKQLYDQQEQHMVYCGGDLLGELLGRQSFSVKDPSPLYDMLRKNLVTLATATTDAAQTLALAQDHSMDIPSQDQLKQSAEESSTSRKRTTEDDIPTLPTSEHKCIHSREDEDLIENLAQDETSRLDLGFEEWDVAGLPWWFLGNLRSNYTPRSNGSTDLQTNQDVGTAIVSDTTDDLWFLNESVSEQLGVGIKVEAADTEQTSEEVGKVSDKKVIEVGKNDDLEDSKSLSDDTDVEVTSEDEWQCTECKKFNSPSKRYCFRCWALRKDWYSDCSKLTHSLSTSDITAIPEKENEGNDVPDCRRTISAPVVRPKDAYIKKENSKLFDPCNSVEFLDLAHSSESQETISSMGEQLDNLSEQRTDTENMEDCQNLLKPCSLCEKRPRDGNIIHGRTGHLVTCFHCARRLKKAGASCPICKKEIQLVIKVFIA
Description: When LgBiT and SmBiT are optimally fused to two interacting proteins, in this case full-length Mdm2 and full-length p53, they will be brought sufficiently close to each other that they will reform the active luciferase and generate a luminescence signal.
For transient transfection experiments, 24 hours prior to transfection CHO cells were seeded at a cell density of 300,000 or 1200,000 cells respectively per well of a 6 well plate (ThermoFisher Scientific). […] After a 24 hour incubation, medium was removed and cells were washed with PBS saline. Transfected CHO-1 cells were trypsinised and re-suspended in Opti-MEM media with 0% FCS. […] 25 μl of a 20-fold dilution of Nano-Glo live cell substrate (Promega) in Nano-Glo dilution buffer (PROMEGA) was added to each well and the plate shaken for 1 min at 22 °C and luminescence assessed after additional 50 minutes as described previously[43]. All luminescence assay were carried out in triplicate and luciferase activity for each well was measured by Envision Multilabel plate reader (PerkinElmer). […]
Curve-fitting was carried out using Prism 4.0 (GraphPad). a was always constrained to the experimental value determined using the 1% DMSO (v/v) experimental control. After curve fitting the value determined for d was then verified to be in close agreement with the plateau of the titration.

[3] = tested on: CHO-K1 cells; assay: LDH release assay (CytoTox); format: cell-based, Chinese hamster; conditions: Cricetulus griseus
[4] = tested on: p53:Mdm2 interaction; conditions: read-out: IC50, fluorescence polarization assay; cited from earlier work
[5] = molecular target: T3, ASH-p53:AG-Mdm2 (Homo sapiens, UniProt Q00987); assay: Reversibility of FLUOPPI foci, transiently transfected ASH-p53:AG-Mdm2 CHO-K1 cells; format: cell-based
T3 construct: all eight possible combinations of p53 (1–70) and Mdm2 (1–119) were fused
Description: All 8 possible interactions pairs for the Mdm2:p53 PPI were then co-expressed in CHO-K1 cells and then analysed for foci formation 24 hours post-transfection (Fig. 1B). To eliminate the possibility of non-specific interactions between the expression constructs giving rise to foci formation, negative control experiments were performed between the AG fluorescent tagged constructs and the non-fluorescent oligomerizing tag (ASH) by itself (Fig. 1C).
24 hours prior to transfection CHO-K1 cells were seeded at a cell density of 800,000 cells respectively per well of a 6 well plate (ThermoFisher Scientific). […] After a 24 hour incubation, medium was removed and cells were washed with PBS saline. Transfected CHO-K1 cells were trypsinised and re-suspended in Nutrient Mixture F-12 Ham (Ham's F-12) media (Sigma-Aldrich) supplemented with 10% FCS. Cells were then spun down at 1000 rpm for 5 minutes at room temperature. Supernatant was then discarded and cells re-suspended to a density of 200,000 cells per ml in Ham's F-12 media supplemented with 10% FCS. 100 μl of the resulting cell suspension was added to the wells of a black clear bottom 96-well plate. After a 24 hours incubation, the cell medium was replaced with fresh Ham's F-12 medium containing the indicated concentration of small molecule or stapled peptide and the stated FCS concentration. Final concentration of DMSO was 1% (v/v).

[6] = tested on: CHO-K1 cells
[7] = tested on: CHO-K1 cells; assay: cells; conditions: Cricetulus griseus, read-out: Viability (IC50, µM)
[8] = CHO-K1, 1 h, read-out: LDH Release (EC50, µM)

T3 sequence (Q00987 1-119, looked up): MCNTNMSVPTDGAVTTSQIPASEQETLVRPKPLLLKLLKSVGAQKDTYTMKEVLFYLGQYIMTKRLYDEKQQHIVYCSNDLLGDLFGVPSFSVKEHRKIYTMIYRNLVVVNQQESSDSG

SMILES	inhibition of the p53:Mdm4 FLUOPPI PPI (in words) [1]	IC50 ([2]; 1 hour treatment)	IC50 ([2]; 24 hour treatment)	EC50 [3, 8]	EC50 ([3]; CHO-K1, 4 h, read-out: Normalized LDH release, value printed beside curve)	IC50 [4]	disruption of Mdm2:p53 fluorescent foci (in words) [5]	effect on cellular viability (in words) [6]	concentration with significant effects on cellular viability (arbitrarily defined as >25%) ([6]; Chinese hamster)	IC50 ([7]; CHO-K1, 1 h)	IC50 ([7]; CHO-K1, 24 h)
CC(C)(C)C[C@@H]1N[C@@H](C(=O)N[C@H]2CC[C@H](O)CC2)[C@H](c2cccc(Cl)c2F)[C@]12C(=O)Nc1cc(Cl)ccc12 [MI-773]	negligible effect	10.2 ± 1.6 µM	2.7 µM	30 ± 6.2 µM	30.6 ± 6.2 µM	0.00088 µM					
COc1ccc(C2=N[C@@H](c3ccc(Cl)cc3)[C@@H](c3ccc(Cl)cc3)N2C(=O)N2CCNC(=O)C2)c(OC(C)C)c1 [Nutlin 3A]				35.7 ± 6.2 µM			disrupted; also recorded: disruption of the fluorescent foci	significant decreases in cellular viability	> 25 µM	34 ± 7 µM	28.5 µM
